Test [1] has as its system γδ T cell receptor (TCR). In words: Stimulation of iPS-derived T cell progenitors through the γδ T cell receptor, flow cytometry (Example 5). Type of test: cell-based, human. Particulars: day 35; HMBPP 0.01 μg/mL to 1 μg/mL or zoledronic acid 5 μmol/L; no marker expression without stimulants; FIG. 11. Here is the method: αMEM medium supplemented with a final concentration of 20% FBS and 1% penicillin/streptomycin was prepared as an OP9 cell culture medium.
OP9 cell culture medium supplemented with a final concentration of 100 mmol/L vitamin C, 10 ng/ML IL-7, 10 μg/mL FLT3 ligand, and 10 μg/mL stem cell factor (SCF) was prepared as a differentiation induction medium.
A dish on which OP9 cells were cultured was prepared as the feeder cells. The OP9 cells were cultured in the OP9 medium. Multiple cell clusters of iPS cells were seeded onto the feeder cells, and stem cell medium containing 10 μmol/L Y27632 was added. The cells were cultured for two days. On the second day, the medium was replaced with the OP9 medium supplemented with vitamin C, and the cells were cultured for an additional 12 days. On days 5, 9, and 13, half of the medium was removed from the dish and replaced with fresh OP9 medium supplemented with vitamin C.
During the 14-day culture, the differentiation of iPS cells into hematopoietic progenitor cells was observed. The cells were confirmed to be positive for CD34 and CD43, which are markers of hematopoietic cells. […]
It was confirmed that CD3 and γδ TCR (Vγ9) were expressed on the surface of the cells. […] In the negative control, where no stimulants were added, no marker expression was detected.

Test [2] relates to Human peripheral blood mononuclear cells. The experiment in a line: iPS cell induction from mononuclear cells in PTA-containing medium (Example 1). The class given is cell-based. Particulars: IL-2 added daily. Here is the method:
A PTA-containing medium according to Example 1 was prepared using RPMI 1640 medium (Gibco) containing […] of tetrakis-pivaloyloxymethyl-2-(thiazol-2-ylamino) ethylidene-1, 1-bisphosphonate (PTA, Techno Suzuta), 10% fetal bovine serum (Life Technologies), 1.0×10^−5 mol/L 2-mercaptoethanol (Nacalai Tesque), 100 U/mL penicillin, and 100 μg/mL streptomycin (Life Technologies).
Human peripheral blood mononuclear cells were added to the PTA-containing medium according to Example 1, and a medium containing approximately 1×10^6 mononuclear cells was placed into a 24-well plate (Day 1). […] On Day 3, the medium containing cells was collected from the plate, centrifuged, and the supernatant was removed. Then, 2 mL of fresh PTA-containing medium according to Example 1 was added to the cells, and 1 mL of the medium was placed into two wells of a 24-well plate.
On Day 6, the medium containing cells was collected from the plate, centrifuged, and the supernatant was removed. Then, the PTA-containing medium according to Example 1 was added to the cells, and a medium containing 2×10^4 mononuclear cells was placed into a 96-well plate. KLF4, OCT3/4, SOX2, and c-MYC were introduced into the cells using MSRV (Tokiwa Bio). […]
Additionally, genomic DNA was extracted from the iPS cells, and the presence of the recombined Vγ9 gene was analyzed by PCR and electrophoresis. […]

In the case of `C/C(=C\COP(=O)(O)OP(=O)(O)O)CO` [HMBPP, (E)-4-hydroxy-3-methyl-but-2-enyl pyrophosphate], the “CD3 and γδ TCR (Vγ9) expression on the surface of the cells” value in test [1] is on record as “expressed”. As to `CC(C)(C)C(=O)OCOP(=O)(OCOC(=O)C(C)(C)C)C(CNc1nccs1)P(=O)(OCOC(=O)C(C)(C)C)OCOC(=O)C(C)(C)C` [PTA, tetrakis-pivaloyloxymethyl-2-(thiazol-2-ylamino) ethylidene-1,1-bisphosphonate], the “presence of the recombined Vγ9 gene in the iPS cells by PCR and electrophoresis” value in test [2] (FIG. 3) is reported as “confirmed to possess a recombined Vγ9 gene with a JP gene”. The “colonies of iPS cells on Day 14” value in test [2] (KLF4, OCT3/4, SOX2, c-MYC introduced using MSRV, MOI 5) is recorded as “multiple colonies”.

Source of the values: patent publication US20250354115A1, “METHOD FOR PRODUCING STEM CELLS AND METHOD FOR PRODUCING GAMMA DELTA T CELLS” (I Peace, Inc., priority 2022, published 2025).
